Values after ≈ are worked out from the molar mass of the structure shown. Where two headings read alike, the source gives them in different places. Where a SMILES comes first, the peptide text is derived from it.
How the values were obtained:
E. coli E423-17 biofilms = test: Disruption of preformed biofilms in vitro (XTT); type: cell-based, Escherichia coli; settings: 24 h preformed biofilm
Experimental: (§1) Effects of Peptides on Established Biofilms in Vitro. Bacteria (S. aureus USA300 LAC and E. coli E423-17) were grown in rich TSB media overnight. A second inoculation was made the next day to reach an exponential phase (OD600˜0.4). Microtiter plates (96 wells, Corning Costar Cat no. 3595), after aliquoting with 180 μL of the culture to each well, were incubated at 37° C. for 24 hours to form biofilms in rich TSB. Media were aspirated post incubation, and the attached biofilms were washed with 1×PBS to remove the planktonic bacteria. […] Biofilms treated with water served as the positive control, while media without bacterial inoculation served as the negative control. Live cells in the biofilms were quantitated using XTT as described above. Absorbance was read at 450 nm (only media with XTT containing wells served as the blank) using a ChroMate™ microtiter plate reader. Percentage biofilm growth for the peptide was plotted by assuming 100% biofilm growth in bacterial control alone. The data were represented as mean±SD; plots were generated using GraphPad prism 7, where * indicates p<0.05, **p<0.01, and ***P<0.001, and ****p<0.0001 (one-way analyses of variance).

P. aeruginosa E411-17 = test: microbe, parasite or virus in culture; type: cell-based, Pseudomonas aeruginosa; settings: E411-17
Experimental: (§2) The following resistant bacterial clinical strains were used in this study: S. aureus USA300 LAC, S. epidermidis 1457, E. coli E423-17, P. aeruginosa E411-17, K. pneumoniae E406-17, and A. baumannii B28-16. While the S. aureus USA300 strain is methicillin-resistant, most of the Gram-negative bacteria contain extended-spectrum beta-lactamase and are resistant to beta-lactam antibiotics. Peptide activity against bacteria was tested using an established lab protocol (Mishra, et al. (2017) Acta Biomater., 49:316-328). In brief, a peptide concentration gradient with twofold dilution was made in the 96-well polystyrene microplate at 10 μL per well. Bacteria were grown to the exponential phase (i.e., optical density at 600 nm≈0.5), diluted to ˜10^5 CFU/mL in different percentages of MHB, TSB, or LB, and partitioned into the 96-well microplate at 90 μL per well. […] They were diluted with autoclaved distilled water to obtain different percentages. The microplates were incubated at 37° C. overnight and read on a ChroMate™ 4300 microplate reader at 600 nm (GMI, Ramsey, MN). The peptide concentration in the wells without bacterial growth is the MIC. As is the convention, MIC values were represented as ranges.
(§3) For pH effects on peptide activity, the pH of the medium was adjusted to a targeted pH for the autoclave and then remeasured at room temperature. For salt and serum effects on peptide activity, stock NaCl solution or human serum was added to the media.
(§4) Peptide activity against bacteria were tested using the CLSI standard procedure with minor modifications (Clinical and Laboratory Standards Institute (2018) Performance standards for antimicrobial susceptibility testing, 9th ed.; Mishra, et al. (2019) Proc. Natl. Acad. Sci., 116(27):13517-13522). In brief, a peptide concentration gradient with twofold dilution was made in the 96-well polystyrene microplate at 10 μL per well. Bacteria were grown to the exponential phase (i.e., optical density at 600 nm≈0.5), diluted to ˜10^5 CFU/mL in MHB, and partitioned into the 96-well microplate at 90 μL per well. The microplates were incubated at 37° C. overnight and read on a ChroMate® 4300 Microplate Reader at 600 nm (GMI, Ramsey, MN). The peptide concentration in the wells without bacterial growth is the minimal inhibitory concentration (MIC). As the convention, MIC values were represented as ranges.
(§5) For pH effects on peptide activity, the pH of the medium was adjusted to a targeted pH for autoclave and then remeasured at room temperature. For salt and serum effects on peptide activity, stock NaCl solution or human serum were added to the media.

S. aureus USA300 LAC = test: microbe, parasite or virus in culture; type: cell-based, Staphylococcus aureus
Experimental: as §2, §3, §4, §5

[1] = system: S. aureus USA300 LAC biofilms; test: Disruption of preformed biofilms in vitro (XTT); type: cell-based, Staphylococcus aureus; settings: 24 h preformed biofilm
Experimental: as §1
LL-37 is known to inhibit bacterial biofilms (Overhage, et al. (2008) Infect. Immun., 76:4176-4182). However, it was unable to disrupt preformed MRSA biofilms in rich media (Mishra, et al. (2016) ACS Med. Chem. Lett., 7:117-121). Next, it was determined whether the diluted MHB medium could be useful to detect biofilm-disrupting activity for LL-37 against MRSA. An established procedure (Mishra, et al. (2016) ACS Med. Chem. Lett., 7:117-121; Duplantier, et al. (2013) Front. Immunol., 4:143) was used wherein biofilms were formed and washed as usual to remove planktonic cells. The biofilms were then treated with peptides in 12.5% MHB for 24 hours. Finally, live cells were quantified with XTT (ATCC). FIG. 2 compares the levels of live cells of MRSA in the preformed biofilms after 24 hour treatment. […] Of note is a similar pattern for both peptides in 12.5% MHB treated at various concentrations.
Bacteria (S. aureus USA300 LAC or P. aeruginosa E411-17) were grown up in TSB media overnight. A second inoculation was made the next day to reach an exponential phase (OD600˜0.4). Microtiter plates (96 wells, Corning Costar Cat No. 3595), after aliquoting with 180 μL of the culture to each well, were incubated at 37° C. for 24 hours to form biofilms in rich TSB. Media were aspirated post incubation and the attached biofilms were washed with 1×PBS to remove the planktonic bacteria. […] Biofilms treated with water served as the positive control while media without bacterial inoculation served as the negative control. Live cells in the biofilms were quantitated using the XTT as described above. Absorbance was read at 450 nm (only media with XTT containing wells served as the blank) using a ChroMate® microtiter plate reader. Percentage biofilm growth (the plot legend is antibiofilm activity) for the peptides was plotted by assuming 100% biofilm growth in bacterial control alone. The data were represented as mean±SD, plots were generated using GraphPad prism 7, where * indicates p<0.05, ** p<0.01, and ***P<0.001, and ****p<0.0001 (one-way analyses of variance).

E. coli E423-17 = type: cell-based, Escherichia coli; settings: E423-17
Experimental: as §2, §3, §4, §5

S. epidermidis 1457 = test: microbe, parasite or virus in culture; type: cell-based, Staphylococcus epidermidis; settings: read-out: Antimicrobial activity (MIC) S. epidermidis 1457
Experimental: as §2, §4

A. baumannii B28-16 = type: cell-based, Acinetobacter baumannii; settings: B28-16
Experimental: as §2, §4

[2] = Effect of MHB dilution on antibacterial activity of a panel of antibiotics; type: cell-based; settings: MHB from 100 to 12.5%
Experimental: FIGS. 2A-2D show biofilm disruption activity of human LL-37 (FIGS. 2A and 2B) and 17BIPHE2 (FIGS. 2C and 2D) against the 24 hour preformed biofilms of S. aureus USA300 LAC in different MHB media: 12.5% MHB (FIGS. 2A and 2C) and 100% MHB (FIGS. 2B and 2D). FIGS. 2E-2H show the treatment outcome of LL-37 (FIGS. 2E and 2F) and 17BIPHE2 (FIGS. 2G and 2H) against the 24-hour preformed biofilms of E. coli E423-17 in different MHB media: 12.5% MHB (FIGS. 2E and 2G) and 100% MHB (FIGS. 2F and 2H). […] Growth curves of S. aureus USA 300 LAC (FIGS. 2J-2K) and P. aeruginosa 152 (FIGS. 2L-2M) in 12.5%, 25%, 50% and 100% MHB or TSB medium (curves from bottom to top).
The effects of MHB dilution on the antimicrobial activity of a panel of antibiotics was also compared (FIG. 2I).

[3] = Staphylococcus aureus, MRSA / USA300, MRSA in MHB, 20% serum, read-out: Antimicrobial activity (MIC)
[4] = Staphylococcus aureus, MRSA / USA300, pH 6.3, MRSA in MHB, pH 6.3, read-out: Antimicrobial activity (MIC)
[5] = Staphylococcus aureus, MRSA / USA300, pH 7.2, MRSA in MHB, pH 7.2, read-out: Antimicrobial activity (MIC)

SMILES: CC(C)C[C@H](NC(=O)[C@H](CC(N)=O)NC(=O)[C@H](CCCNC(=N)N)NC(=O)[C@@H](CC(C)C)NC(=O)[C@H](Cc1ccc(-c2ccccc2)cc1)NC(=O)[C@H](CC(=O)O)NC(=O)[C@H](CCCCN)NC(=O)[C@@H](CC(C)C)NC(=O)[C@H](CCCNC(=N)N)NC(=O)[C@H](CCC(N)=O)NC(=O)[C@@H](NC(=O)[C@@H](CC(C)C)NC(=O)[C@H](CCCNC(=N)N)NC(=O)[C@H](CCCCN)NC(=O)[C@H](Cc1ccc(-c2ccccc2)cc1)NC(=O)CN)C(C)C)C(=O)N[C@H](C(N)=O)C(C)C [17BIPHE2] (HELM PEPTIDE1{G.[O=C([C@H](Cc1ccc(-c2ccccc2)cc1)N[*:1])[*:2]].K.R.[dL].V.Q.R.[dL].K.D.[O=C([C@H](Cc1ccc(-c2ccccc2)cc1)N[*:1])[*:2]].[dL].R.N.L.V.[am]}$$$$V2.0; N-terminus and C-terminus assumed)
- effect on biofilms (E. coli E423-17 biofilms; 12.5% MHB): dose-dependent antibiofilm effect
- effect on biofilms (E. coli E423-17 biofilms; 100% MHB): subtle effect
- Antimicrobial activity (MIC) P. aeruginosa E411-17 (P. aeruginosa E411-17): 4 µM
- MIC (S. aureus USA300 LAC; USA300): 2 to 4 µM
- MIC (S. aureus USA300 LAC; USA300, read-out: Antimicrobial activity (MIC) S. aureus USA300): 4 µM (≈ 9.02 µg/mL)
- peptide concentration showing biofilm disruption ([1]; 12.5% MHB): 16 µM
- peptide concentration at which it started to work on biofilms ([1]; 100% MHB): 8 µM
- live bacteria remained in the biofilms ([1]; 100% MHB, treated at 16 μM for 24 h): ~30%
- Antimicrobial activity (MIC) (E. coli E423-17): <2 µM
- Antimicrobial activity (MIC) E. coli E423-17 (E. coli E423-17): 4 µM
- MIC (S. epidermidis 1457): 8 µM (≈ 18 µg/mL)
- Antimicrobial activity (MIC) A. baumannii B28-16 (A. baumannii B28-16): 4 µM

SMILES: NCC[C@H](O)C(=O)N[C@@H]1C[C@H](N)[C@@H](O[C@H]2O[C@H](CN)[C@@H](O)[C@H](O)[C@H]2O)[C@H](O)[C@H]1O[C@H]1O[C@H](CO)[C@@H](O)[C@H](N)[C@H]1O [Amikacin]
- change of MIC / activity (S. aureus USA300 LAC; MRSA in MHB, 10% human serum): fourfold
- MIC (S. aureus USA300 LAC; [3]): 32 to 64 µM (≈ 18.7 to 37.5 µg/mL)
- MIC (S. aureus USA300 LAC; [4]): 32 µM (≈ 18.7 µg/mL)
- MIC (S. aureus USA300 LAC; [5]): 8 µM (≈ 4.68 µg/mL)
- change in MIC with dilution of MHB [2]: small changes in MIC values

SMILES: CN[C@H](CC(C)C)C(=O)N[C@H]1C(=O)N[C@@H](CC(N)=O)C(=O)N[C@H]2C(=O)N[C@H]3C(=O)N[C@H](C(=O)N[C@H](C(=O)O)c4cc(O)cc(O)c4-c4cc3ccc4O)[C@H](O)c3ccc(c(Cl)c3)Oc3cc2cc(c3O[C@@H]2O[C@H](CO)[C@@H](O)[C@H](O)[C@H]2O[C@H]2C[C@](C)(N)[C@H](O)[C@H](C)O2)Oc2ccc(cc2Cl)[C@H]1O [Vancomycin]
- MIC (S. aureus USA300 LAC; Staphylococcus aureus, MRSA / USA300, pH 6.3, read-out: Antimicrobial activity (MIC), MRSA in MHB, pH 6.3): 0.5 µM (≈ 0.725 µg/mL)
- MIC (S. aureus USA300 LAC; Staphylococcus aureus, MRSA / USA300, pH 7.2, read-out: Antimicrobial activity (MIC), MRSA in MHB, pH 7.2): 0.5 µM (≈ 0.725 µg/mL)
- MIC (S. aureus USA300 LAC; Staphylococcus aureus, MRSA / USA300, read-out: Antimicrobial activity (MIC), MRSA in MHB, 10% serum): 0.5 µM (≈ 0.725 µg/mL)
- MIC (S. aureus USA300 LAC; Staphylococcus aureus, MRSA / USA300, read-out: Antimicrobial activity (MIC), MRSA in MHB, 20% serum): 0.5 to 1 µM (≈ 0.725 to 1.45 µg/mL)
- MIC (S. aureus USA300 LAC; Staphylococcus aureus, MRSA / USA300, read-out: Antimicrobial activity (MIC), MRSA in MHB, NaCl (150 mM)): 0.5 to 1 µM (≈ 0.725 to 1.45 µg/mL)
- change in MIC with dilution of MHB [2]: essentially no changes

SMILES: NC[C@H]1O[C@H](O[C@H]2[C@H](O)[C@@H](O[C@H]3O[C@H](CO)[C@@H](O)[C@H](N)[C@H]3O)[C@H](N)C[C@@H]2N)[C@H](N)C[C@@H]1O [Tobramycin]
- MIC (S. aureus USA300 LAC; Staphylococcus aureus, MRSA / USA300, MRSA in MHB, 10% serum, read-out: Antimicrobial activity (MIC)): 2 to 4 µM (≈ 0.935 to 1.87 µg/mL)
- MIC (S. aureus USA300 LAC; [4]): 4 µM (≈ 1.87 µg/mL)
- MIC (S. aureus USA300 LAC; [5]): 2 µM (≈ 0.935 µg/mL)
- change in MIC with dilution of MHB [2]: essentially no changes

SMILES: CC(=O)NC[C@H]1CN(c2ccc(N3CCOCC3)c(F)c2)C(=O)O1 [Linezolid]
- MIC (S. aureus USA300 LAC; [3]): 8 to 16 µM (≈ 2.7 to 5.4 µg/mL)
- MIC (S. aureus USA300 LAC; Staphylococcus aureus, MRSA / USA300, MRSA in MHB, NaCl (150 mM), read-out: Antimicrobial activity (MIC)): 8 µM (≈ 2.7 µg/mL)
- change in MIC with dilution of MHB [2]: essentially no changes
